# Laboratory results taken from patent publication US6342492B1, “Anti-viral triaza compounds and compositions” (The Research Foundation of State University of New York, priority 1995, dated 2002).
# Counter-ions that a name gives are not always drawn. Like-named read-outs stand apart in the source and are kept apart here.
# How the values were obtained:
# HIV strain MD48 = test: MAGI assay on HeLa-MAGIC cells (plaque inhibition); assay type: cell-based; conditions: read-out: ED50 MD48/HeLa
# Human Cytomegalovirus = test: Semi-automated CPE-inhibition assay for HCMV in human foreskin fibroblast cells; assay type: cell-based
# Procedure: (§1) Additional antiviral testing was carried out to test the efficacy of compounds of the invention against human cytomegalovirus (HCMV) and another herpesvirus, Variecella Zoster Virus(VZV). The compounds tested were compound (1), the HCl salt of compound (1), Compounds 211, 43, 213 and 214.
# HIV strain MB48 = test: Reverse transcriptase (RT) assay in MT-2 cells, HIV strain MB48; assay type: cell-based
# [1] = tested on: HIV strain 2h, a primary pediatric clinical isolate; test: Protein (p24) assay in PBMC cells with 2h; assay type: cell-based; conditions: read-out: ED50 2h/PBMC
# [2] = Inhibition of cell proliferation (cytotoxicity) in herpesvirus screening; assay type: cell-based, human; conditions: human, human foreskin fibroblast cells, inhibit cell proliferation by 50%
# Varicella Zoster Virus = test: Plaque reduction assay for VZV (Ellen strain); assay type: cell-based
# Procedure: as §1
# [3] = tested on: Varicella Zaster Virus (VZV); test: Ocular Varicella Zaster Virus infection in rabbits, intravenous therapy; assay type: in vivo, rabbit
# [4] = tested on: human cytomegalovirus (HCMV); test: Antiviral testing against human cytomegalovirus (Example 5); assay type: cell-based; conditions: concentration causing 50% protection against virus, PDR = poor dose response
# [5] = tested on: human foreskin fibroblast cells; test: Inhibition of cell proliferation (cytotoxicity) in herpesvirus screening; assay type: cell-based; conditions: inhibit cell proliferation by 50%
# [6] = tested on: influenza virus (FLU WSN); test: Antiviral testing against influenza virus (Example 5); assay type: cell-based; conditions: FLU WSH, concentration causing 50% protection against virus
# [7] = tested on: herpes simplex virus (HSV); test: Antiviral testing against herpes simplex virus (Example 5); assay type: cell-based; conditions: concentration causing 50% protection against virus, PDR = poor dose response
# rous sarcoma virus = test: Antiviral testing against rous sarcoma virus (Example 5); assay type: cell-based; conditions: RSV, concentration causing 50% protection against virus, PDR = poor dose response
# Mo-MO = test: Cytotoxicity in Mo-MO/HIV-1 Ba-L infection assay; assay type: cell-based; conditions: high test
# [8] = tested on: peripheral blood lymphocytes; test: Cytotoxicity in PBL/HIV-1 Wejo infection assay; assay type: cell-based
# Text: (§2) The studies were based on activity of the compound against HIV-1 in peripheral blood lymphocytes. The results with different solutions and different batches of the compound confirm that the compound is active at submicromolar levels (EC50) and has low cytotoxicity (IC50).
# HIV-1 = test: Anti-HIV soluble formazan (XTT tetrazolium) assay in CEM-IW cells; assay type: cell-based
# Procedure: (§3) In these tests, the IC50 (50% inhibitory concentration) is the concentration resulting in 50% cellular toxicity. EC50 (median effective concentration) is the compound concentration that reduces infection by 50%. The effectiveness of a compound against a virus is expressed as TI50 (median therapeutic index) which is determined by the ratio IC50/EC50.
# (§4) Compounds of the invention were tested to assess the efficacy of the inhibitory effect of the compounds against HIV. The screen was carried out in a soluble formazan assay by the tetrazolium method according to Weislow et al., J. Natl. Cancer Inst. 81:577-586, 1989.
# (§5) The compound was dissolved in dimethyl sulfoxide (DMSO) (final conc. less than 0.25%) and then diluted 1:100 in cell culture medium. Because DMSO is toxic to cells at concentration above 1%, the concentration of the compound in DMSO should be at least 10 uM before dilution with aqueous solution. Various concentrations of the compound were tested against HIV-1 in CEM-IW cells. After six days incubation at 37° C. in a 5% carbon dioxide atmosphere, viable cells were analyzed through addition of tetrazolium salt XTT followed by incubation to allow formazan color development. Cell viability was viewed microscopically and detected spectrophotometrically to quantitate formazan production.
# [9] = Stability in pH 4.0 buffer; assay type: physicochemical
# Procedure: (§6) Additional studies on stability, solubility, formulation and pharmokinetics were carried out. Plasma elimination and urinary recovery from mice following i.v. administeration were examined. Solubility of the compound in human, mouse, rat plasma and plasma ultrafiltrate were examined. Stability of the compound in human urine was determined.
# [10] = tested on: HIV-1 (IIIB, AZT-resistant, AZT-sensitive, A17, WeJo), HIV-2, SIV; test: Anti-HIV testing against additional strains (Example 2); assay type: cell-based; conditions: viruses and cell lines listed in Example 2
# Procedure: as §4, §5
# (§7) Testing was carried out as described in Example 1 against additional HIV strains. The compound CADA was active against the following viruses using the indicated cell lines:
# (§8) IIIB strain of HIV-1/MT-4 cell line
# (§9) AZT—resistant HIV-1/MT-2 and MT-4 cell lines
# (§10) AZT—sensitive HIV-1/MT-4 cell line
# A17, a strain of HIV-1 resistant to most of the non-nucleoside reverse transcriptase inhibitors/MT-2 and MT-4 cell lines, […]
# in vitro [11] = assay type: in vitro ADME; conditions: rat, plasma
# [12] = Solubility in human plasma; assay type: physicochemical; conditions: plasma or biological fluid, human plasma at 37° C.
# Procedure: as §6
# HIV protease = target: T1, HIV protease (Human immunodeficiency virus type 1 group M subtype B, UniProt P04585); test: Protease activity (rp HPLC); assay type: biochemical; conditions: read-out: Protease Activity (rp HPLC) ID50
# T1 construct: HIV protease
# virus attachment = test: Attachment (p 24 based); assay type: cell-based, HIV
# [13] = target: T2, HIV reverse transcriptase (Human immunodeficiency virus type 1 group M subtype B, UniProt P04585); test: RT activity (rA.dT); assay type: biochemical
# T2 construct: HIV reverse transcriptase
# HIV-1 Ba-L = test: Mo-MO/HIV-1 Ba-L infection; assay type: cell-based; conditions: Human immunodeficiency virus 1, BAL; fresh
# [14] = Formulation for animal studies in DMSO/normal saline; assay type: physicochemical; conditions: 1:20 mixture of DMSO and normal saline (pH 2.7)
# Procedure: as §6
# cell fusion = test: Cell fusion (mechanism of action studies); assay type: cell-based, HIV; conditions: preliminary mechanism of action studies
# in vitro [15] = assay type: in vitro ADME; conditions: plasma
# Procedure: as §6
# HIV-1 Wejo = test: PBL/HIV-1 Wejo infection; assay type: cell-based
# Text: as §2
# [16] = Plasma elimination in mice after i.v. administration; assay type: in vivo; conditions: mouse plasma, intravenous administration
# Procedure: as §6
# U1/TNF latent infection = test: Latent infection (U1/TNF); assay type: cell-based
# [17] = tested on: MT-4, CEM, MT-2 cell lines, PBMCs; test: Cell toxicity in testing against additional strains (Example 2); assay type: cell-based; conditions: Homo sapiens, MT2
# Procedure: as §3, §7, §8, §9, §10
# A17, a strain of HIV-1 resistant to most of the non-nucleoside reverse transcriptase inhibitors/MT-2 and MT-4 cell lines,
# WeJo, a clinical isolate of HIV-1/PBMCs (fresh human peripheral blood mononuclear cells).
# [18] = Human immunodeficiency virus 1, MAGI assay on HeLa-MAGIC cells (plaque inhibition)
# [19] = Human immunodeficiency virus 1, MT2, Reverse transcriptase (RT) assay in MT-2 cells, read-out: ED50 MB48/MT-2
# [20] = Human immunodeficiency virus 1, 2 h, Protein (p24) assay in PBMC cells
# [21] = HCMV CPE-inhibition screen, read-out: Human Cytomegalovirus CC50
# [22] = VZV screen, read-out: Varicella Zoster Virus CC50
# [23] = MAGI assay on HeLa-MAGIC cells (plaque inhibition)
# [24] = Reverse transcriptase (RT) assay in MT-2 cells, read-out: ED50 MB48/MT-2
# [25] = Protein (p24) assay in PBMC cells
compound,measurement,setting,value
"C=C1CN(S(=O)(=O)c2ccccc2)CCCN(Cc2ccccc2)CCCN(S(=O)(=O)c2ccccc2)C1 [Compound 211, 9-Benzyl-3-methylene-1,5-dibenzenesulfonyl-1,5,9-triazacyclododecane]",EC50,HIV strain MD48; [18],1.5 µM
same,EC50,Human Cytomegalovirus; Human betaherpesvirus 5,> 170 µM
same,EC50,HIV strain MB48; [19],1.9 µM
same,EC50,[1]; [20],0.5 µM
same,CC50,[2]; [21],> 170 µM
same,CC50,[2]; [22],> 170 µM
same,EC50,Varicella Zoster Virus; Human alphaherpesvirus 3,91.7 µM
C=C1CN(S(=O)(=O)c2ccc(C)cc2)CCCN(Cc2ccccc2)CCCN(S(=O)(=O)c2ccc(C)cc2)C1.Cl [1 · HCl],EC50,HIV strain MD48; [23],0.1 µM
same,EC50,Human Cytomegalovirus,> 160 µM
same,"development of iritis and resolution of VZV disease, comparison of therapies",[3]; By day 5 PI,more effective than acyclovir therapy
same,iris disease (uveitis) development,"[3]; rabbits, intravenous therapy",positive therapeutic response
same,VZV-induced corneal stromal disease development,"[3]; rabbits, intravenous, CADA-HCl 5 and 10 mg/kg/day, ACV 20 mg/kg/day",effective in reducing the development of stromal disease
same,EC50,HIV strain MB48; [24],0.2 µM
same,EC50,[1]; [25],0.15 µM
same,IC50,[4]; HCMV,PDR
same,CC50,[5]; [21],> 160 µM
same,CC50,[5]; [22],> 160 µM
same,IC50,[6],>50 µg/mL
same,IC50,[7],PDR
same,IC50,rous sarcoma virus,PDR
same,EC50,Varicella Zoster Virus,3.4 µM
"C=C1CN(S(=O)(=O)c2ccc(C)cc2)CCCN(Cc2ccccc2)CCCN(S(=O)(=O)c2ccc(C)cc2)C1 [Compound 1, 9-Benzyl-3-methylene-1,5-ditosyl-1,5,9-triazacyclododecane]",IC50,Mo-MO,> 30 µM
same,EC50,"HIV strain MD48; Human immunodeficiency virus 1, MAGI",0.5 µM
same,IC50,"[8]; Batch 1, B",> 100 µM
same,IC50,[8]; Batch 2,> 100 µM
same,IC50,"[8]; Lymphocyte, Batch 1, A",> 100 µM
same,EC50,"HIV-1; Human immunodeficiency virus 1, HIV-1(6S)-AZT sensitive, CEM-IW cells, first test",1.2 µM
same,EC50,"HIV-1; Human immunodeficiency virus 1, second test, another batch, primary screen",2.4 µM
same,EC50,Human Cytomegalovirus; Human betaherpesvirus 5,> 34 µM
same,half-life,[9],139 h
same,EC50,[10],2 µM
same,half-life,in vitro [11],> 200 h
same,solubility,[12],1 to 2 µg/mL
same,solubility,[12]; conversion of ug/mL,2 to 3 µM
same,EC50,"HIV strain MB48; Human immunodeficiency virus 1, MT2, read-out: ED50 MB48/MT-2",0.8 µM
same,IC50,HIV protease,40 µM
same,Attachment,virus attachment,No Inhibition
same,EC50,"[1]; Human immunodeficiency virus 1, PBMC, 2 h",0.15 µM
same,IC50,"[4]; HCMV, listed as CADA (1)",> 50 µg/mL
same,IC50,"[4]; Human betaherpesvirus 5, HCMV, read-out: IC50",> 30 µg/mL
same,CC50,[2]; [21],133 µM
same,CC50,[2]; [22],89 µM
same,RT activity (rA.dT) ID50,[13],No Inhibition
same,EC50,HIV-1 Ba-L,1.5 µM
same,concentration at which the compound can be formulated,[14],1200 nM
same,inhibition of cell fusion,cell fusion,does not appear to inhibit
same,half-life,in vitro [15]; human,126 h
same,half-life,in vitro [15]; mouse,> 200 h
same,EC50,"HIV-1 Wejo; Human immunodeficiency virus 1, Batch 1, A",0.55 µM
same,EC50,"HIV-1 Wejo; Human immunodeficiency virus 1, Batch 1, B",0.16 µM
same,EC50,"HIV-1 Wejo; Human immunodeficiency virus 1, Batch 2",0.65 µM
same,IC50,[6]; listed as CADA (1),> 50 µg/mL
same,IC50,"[6]; unidentified influenza virus, WSN",> 30 µg/mL
same,IC50,rous sarcoma virus; read-out: IC50,> 30 µg/mL
same,time detectable in plasma,[16],up to 2 hours
same,Latent Infection,U1/TNF latent infection,No inhibition
same,EC50,Varicella Zoster Virus; Human alphaherpesvirus 3,5.3 µM
same,IC50,[17],> 30 µM
"C=C1CN(S(=O)(=O)c2ccc(C)cc2)CCC[N+]([O-])(Cc2ccccc2)CCCN(S(=O)(=O)c2ccc(C)cc2)C1 [Compound 43, 9-Benzyl-3-methylene-1,5-ditosyl-1,5,9-triazacyclododecane-9-oxide]",EC50,HIV strain MD48; [18],3.5 µM
same,EC50,Human Cytomegalovirus; Human betaherpesvirus 5,> 170 µM
same,EC50,HIV strain MB48; [19],1.8 µM
same,EC50,[1]; [20],0.5 µM
same,CC50,[2]; [21],> 170 µM
same,CC50,[2]; [22],> 170 µM
same,EC50,Varicella Zoster Virus; Human alphaherpesvirus 3,24.3 µM
"C=CCN(CCCN(CCCN(CC=C)S(=O)(=O)c1ccc(C)cc1)Cc1ccccc1)S(=O)(=O)c1ccc(C)cc1 [Compound 004, N-Benzylbis[3-(N′-2-propenyltoluenesulfonamido)propyl]amine dihydrogen sulfate]",EC50,HIV strain MD48; [23],3.5 µM
same,EC50,HIV strain MB48; [24],2.6 µM
same,EC50,[1]; [25],0.5 µM
"C=C1CN(S(=O)(=O)c2ccccc2)CCCN(Cc2ccccc2)CCCN(S(=O)(=O)c2ccccc2)C1 (as salt: HCl) [Compound 211, 9-Benzyl-3-methylene-1,5-dibenzenesulfonyl-1,5,9-triazacyclododecane]",melting point,,135 to 136 °C
"O=S(=O)(NCCCN(CCCNS(=O)(=O)c1ccccc1)Cc1ccccc1)c1ccccc1 (as salt: hydrochloride) [Compound 210, N-Benzylbis(3-benzenesulfonamidopropyl)amine]",melting point,,135 to 136 °C
